# According to patent US20100267823A1, “AURONES AS SELECTIVE PDE INHIBITORS AND THEIR USE IN NEUROLOGICAL CONDITIONS AND DISORDERS” (priority 2009, published 2010):
# Experiments:
# Format in all cases: biochemical
# [1] = test system: PDE1 protein isolated from bovine brain; assay: PDE 1 inhibition assay ([3H]cAMP hydrolysis); settings: final concentration of the test compound 10 μM
# Procedure: (§1) PDE1 protein isolated from bovine brain (MDS Pharma Services: cat. No. 146000) was pre-incubated with the respective test compound dissolved in 1% DMSO aqueous solution for 15 minutes at 25° C. in an incubation buffer (50 mM Tris-HCl, pH 7.5, 5 mM MgCl2, 2 mM CaCl2, 100 U/ml Calmodulin). After pre-incubation phase 1.01 μM [^3H]cAMP+cAMP where added as substrate to the buffer and the mixture was incubated for additional 20 minutes (25° C.).
# (§2) At the end of incubation phase [^3H] Adenosine concentrations were quantified. The final concentration of the test compound is 10 μM.
# [2] = target: T1, PDE3 protein isolated from human platelets (Homo sapiens, UniProt Q14432); assay: PDE 3 inhibition assay ([3H]cAMP hydrolysis); settings: final concentration of the test compound 10 μM; read-out: inhibition compared with the control (PDE 3)
# T1 construct: PDE3 protein isolated from human platelets; tissue MDS Pharma Services 152000; host or cells: human platelets
# Procedure: PDE3 protein isolated from human platelets (MDS Pharma Services: cat. No. 152000) was pre-incubated with the respective test compound dissolved in 1% DMSO aqueous solution for 15 minutes at 25° C. in an incubation buffer (50 mM Tris-HCl, pH 7.5, […], […]). After pre-incubation phase 1.01 μM [^3H]cAMP+cAMP where added as substrate to the buffer and the mixture was incubated for additional 20 minutes (25° C.). At the end of incubation phase [^3H] Adenosine concentrations were quantified. Stimulating or inhibiting effects equal or larger than 50% in comparison to vehicle (1% DMSO) control were considered as significant effects.
# as §2
# [3] = test system: PDE4 protein from human leukemic monocyte lymphoma cell line (U937); assay: PDE 4 inhibition assay ([3H]cAMP hydrolysis); settings: final concentration of the test compound 10 μM
# Procedure: as §1, with “PDE4” for “PDE1”, “protein” for “protein isolated”, “human leukemic monocyte lymphoma cell line (U937, for example abcam ab3959)” for “bovine brain”, “152000)” for “146000)”, “C.). At the end of incubation phase [^3H] Adenosine concentrations were quantified.” for “C.).”
# as §2
# T1 sequence (Q14432 whole entry): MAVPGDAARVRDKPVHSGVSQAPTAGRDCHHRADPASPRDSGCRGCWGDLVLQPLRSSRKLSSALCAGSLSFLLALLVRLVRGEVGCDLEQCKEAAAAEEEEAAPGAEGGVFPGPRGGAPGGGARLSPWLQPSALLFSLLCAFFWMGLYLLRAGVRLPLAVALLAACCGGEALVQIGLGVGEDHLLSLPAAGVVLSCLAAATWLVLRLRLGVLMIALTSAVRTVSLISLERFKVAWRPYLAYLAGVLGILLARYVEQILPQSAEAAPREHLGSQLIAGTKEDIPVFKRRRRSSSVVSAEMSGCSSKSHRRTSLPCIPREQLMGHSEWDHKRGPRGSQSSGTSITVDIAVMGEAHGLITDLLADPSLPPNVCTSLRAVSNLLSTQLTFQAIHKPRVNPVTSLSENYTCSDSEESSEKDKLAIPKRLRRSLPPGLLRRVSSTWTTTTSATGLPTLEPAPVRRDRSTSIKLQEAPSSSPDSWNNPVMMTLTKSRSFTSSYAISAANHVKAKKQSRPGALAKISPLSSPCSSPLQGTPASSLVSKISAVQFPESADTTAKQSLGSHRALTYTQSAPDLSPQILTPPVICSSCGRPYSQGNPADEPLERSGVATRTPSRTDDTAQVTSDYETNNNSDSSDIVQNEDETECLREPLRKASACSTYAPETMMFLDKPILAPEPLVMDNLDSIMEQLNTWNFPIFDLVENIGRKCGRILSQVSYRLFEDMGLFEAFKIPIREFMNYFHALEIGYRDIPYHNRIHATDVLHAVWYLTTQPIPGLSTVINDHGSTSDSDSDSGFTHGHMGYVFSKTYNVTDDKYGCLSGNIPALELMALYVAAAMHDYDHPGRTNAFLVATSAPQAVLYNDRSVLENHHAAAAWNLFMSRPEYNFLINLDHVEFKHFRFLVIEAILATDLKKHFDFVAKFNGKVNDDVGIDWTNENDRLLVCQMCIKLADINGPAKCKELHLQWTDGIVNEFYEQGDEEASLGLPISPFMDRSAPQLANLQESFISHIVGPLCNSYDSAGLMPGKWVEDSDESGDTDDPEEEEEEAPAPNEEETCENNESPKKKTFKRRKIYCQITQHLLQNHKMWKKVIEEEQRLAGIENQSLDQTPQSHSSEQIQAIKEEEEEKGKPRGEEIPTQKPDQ
inhibition at 10 µM [2],Structure (SMILES),inhibition compared with the control (PDE 1) [1],inhibition compared with the control (PDE 4) [3]
39%,"O=C1/C(=C/c2ccc(O)cc2O)Oc2cc(O)cc(O)c21 [SM 29 (3), 2′,4,4′,6-Tetrahydroxy-aurone]",52%,29%
74%,"O=C1/C(=C/c2ccc(O)cc2)Oc2cc(O)cc(O)c21 [SM 30(3), 4,4′,6-Trihydroxy-aurone]",52%,41%
